Several values for one entry are separate records, joined by “and”; a condition that tells them apart may be missing. Equal entries are not always repeated.
Tests used:
[1] = target: T1, MAO-B (Homo sapiens, UniProt P27338); test: IC50 determination, inhibition of recombinant human MAO-B; type: biochemical; conditions: for SI (selectivity index, IC50(MAO-A)/IC50(MAO-B)): selectivity for the MAO-B isoform
T1 sequence (P27338 1-520): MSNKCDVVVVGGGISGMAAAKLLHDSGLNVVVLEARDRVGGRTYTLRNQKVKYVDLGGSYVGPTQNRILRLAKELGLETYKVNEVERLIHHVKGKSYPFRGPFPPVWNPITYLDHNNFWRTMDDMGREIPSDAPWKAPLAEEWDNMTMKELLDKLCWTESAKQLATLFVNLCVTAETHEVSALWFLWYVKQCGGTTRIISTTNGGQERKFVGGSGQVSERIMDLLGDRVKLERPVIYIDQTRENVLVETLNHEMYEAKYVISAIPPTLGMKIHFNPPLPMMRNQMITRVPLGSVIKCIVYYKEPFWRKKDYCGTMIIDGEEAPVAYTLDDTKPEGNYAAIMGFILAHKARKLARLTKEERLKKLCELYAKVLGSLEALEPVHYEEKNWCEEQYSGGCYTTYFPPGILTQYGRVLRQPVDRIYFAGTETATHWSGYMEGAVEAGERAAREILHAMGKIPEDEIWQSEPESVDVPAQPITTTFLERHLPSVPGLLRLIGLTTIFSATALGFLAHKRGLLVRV

[2] = target: T2, recombinant human MAO-A (Homo sapiens, UniProt P21397); test: IC50 determination, inhibition of recombinant human MAO-A; type: biochemical; conditions: mean ± SD of triplicate determinations
T2 sequence (P21397 1-527): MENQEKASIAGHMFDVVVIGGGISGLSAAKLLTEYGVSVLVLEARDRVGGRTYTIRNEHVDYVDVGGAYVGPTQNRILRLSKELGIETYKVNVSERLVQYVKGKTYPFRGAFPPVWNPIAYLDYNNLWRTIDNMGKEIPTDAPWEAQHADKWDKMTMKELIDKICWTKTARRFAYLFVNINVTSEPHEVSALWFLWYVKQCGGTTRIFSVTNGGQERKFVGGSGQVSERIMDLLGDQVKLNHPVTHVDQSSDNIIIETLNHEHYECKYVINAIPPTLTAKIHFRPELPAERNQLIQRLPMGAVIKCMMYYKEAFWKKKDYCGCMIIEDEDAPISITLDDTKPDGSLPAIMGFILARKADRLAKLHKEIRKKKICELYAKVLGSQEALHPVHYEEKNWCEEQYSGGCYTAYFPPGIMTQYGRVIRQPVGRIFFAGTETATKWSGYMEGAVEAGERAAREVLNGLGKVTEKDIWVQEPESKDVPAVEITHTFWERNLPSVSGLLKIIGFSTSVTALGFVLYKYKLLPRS

[3] = target: human MAO-B (Homo sapiens, UniProt P27338); conditions: Lineweaver-Burk graphs linear, intersect on y axis
[4] = target: T1, MAO-B

SMILES	IC50 [1] [nM]	SI (selectivity index, IC50(MAO-A)/IC50(MAO-B)) [1]	IC50 [2]	Fold weaker as MAO-B inhibitor than compound 2b ([1]; relative to weakest inhibitor of the series, 2b (IC50 = 0.157 µM)) [fold]	Mode of MAO-B inhibition [3]	Reversibility of MAO-B inhibition by dialysis [4]	Residual MAO-B catalytic activity after dialysis (% of negative control value) ([4]; inhibitor at 4× IC50, incubated 15 minutes, dialyzed for 24 hours) [%]
CC(=O)c1ccc(OCc2ccccc2)cc1 [Compound 3a, 4′-Benzyloxyacetophenone]	27 ± 3	722	19.5 ± 2.47 µM				
CC(=O)c1ccc(OCc2ccc(C(F)(F)F)cc2)cc1O [Compound 2m, 2-Acetyl-5-[4-(trifluoromethyl)benzyloxy] phenol]	10 ± 3	1,360	13.6 ± 0.238 µM				
CC(=O)c1ccc(OCc2cccc(Cl)c2)cc1O [Compound 2f, 2-Acetyl-5-(3-chlorobenzyloxy)phenol]			> 17.7 µM				
CC(=O)c1ccc(OCc2cccc(F)c2)cc1O [Compound 2d, 2-Acetyl-5-(3-fluorobenzyloxy)phenol]			> 17.7 µM				
CC(=O)c1ccc(OCCCc2ccccc2)cc1O [Compound 2c, 2-Acetyl-5-(3-phenylpropoxy)phenol]	60 ± 13	178	10.7 ± 2.3 µM				
CC(=O)c1ccc(OCc2ccc(C)cc2)cc1O [Compound 2j, 2-Acetyl-5-(4-methylbenzyloxy)phenol]	26 ± 2	969	25.2 ± 0.939 µM				
CC(=O)c1ccc(OCc2cccc(C#N)c2)cc1O [Compound 2k, 2-Acetyl-5-(3-cyanobenzyloxy)phenol]	23 ± 0.3	71	1.64 ± 0.213 µM				
CC(=O)c1ccc(OCc2ccc(C#N)cc2)cc1O [Compound 2l, 2-Acetyl-5-(4-cyanobenzyloxy)phenol]	4 ± 1	680	2.72 ± 0.352 µM				
CC(=O)c1ccc(OCc2ccc(Cl)cc2)cc1O [Compound 2g, 2-Acetyl-5-(4-chlorobenzyloxy)phenol]			1.81 ± 0.284 µM				
CC(=O)c1ccc(O)cc1O [Compound 4, 2′,4′-dihydroxyacetophenone, reference compound]	39700 ± 5030	1.2	47.7 ± 3.12 µM	250			
CCCCOc1ccc(C(C)=O)c(O)c1 [Compound 2n, 2-Acetyl-5-butoxyphenol]	103 ± 15	84	8.65 ± 1.04 µM				
CC(=O)c1ccc(OCc2ccccc2)cc1O [Compound 2a, 2-Acetyl-5-benzyloxyphenol]		1,194	8.36 ± 0.442 µM				
CC(=O)c1ccc(OCCc2ccccc2)cc1O [Compound 2b, 2-Acetyl-5-(2-phenylethoxy)phenol]	157 ± 41	30	4.7 ± 0.716 µM				
CC(=O)c1ccc(OCc2ccc(F)cc2)cc1O [Compound 2e, 2-Acetyl-5-(4-fluorobenzyloxy)phenol]					competitive inhibitor	only partially reversed	52
CCCCCCCOc1ccc(C(C)=O)c(O)c1 [Compound 2o, 2-Acetyl-5-heptyloxyphenol]	156 ± 50	387	60.4 ± 8 µM				
CC(=O)c1ccc(OCc2cccc(I)c2)cc1O [Compound 2h, 2-Acetyl-5-(3-iodobenzyloxy)phenol]	14 ± 2	1,921	26.9 ± 1.8 µM				
CCC(=O)c1ccc(OCc2ccccc2)cc1O [Compound 3b, 2-Propanoyl-5-benzyloxyphenol]	4 ± 1	9,550	> 17.7 µM and 38.2 µM				
CC(=O)c1ccc(OCc2cccc(C)c2)cc1O [Compound 2i, 2-Acetyl-5-(3-methylbenzyloxy)phenol]	54 ± 10	328	17.7 ± 2.8 µM				

Reference: publication PMC4507791 (Drug Design, Development and Therapy, 2015)
